PubChem BioAssay AID256 (DTP/NCI, 2004)
Where “and” joins values, the source holds several entries; their conditions need not be identical. Equal values may be shown once. Toxic doses and inconclusive results are not listed.

Tested on: CD2F1 mice, L1210 leukemia ip, survival T/C
Test: NCI In Vivo Anticancer Drug Screen. Data for tumor model L1210 Leukemia (intraperitoneal) in CD2F1 (CDF1) mice
Settings: higher = longer survival
Summary of the method: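 Read-out first: treated-group measurement over vehicle-control measurement, expressed as a ratio. Animals bore a transplanted tumor line and were dosed with compound or vehicle.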

[1] = endpoint: mean survival time, dose: 100.0 mg/kg/injection, schedule: Q04DX003 (ip), vehicle: saline
[2] = endpoint: mean survival time, dose: 200.0 mg/kg/injection, schedule: Q04DX003 (ip), vehicle: saline
[3] = endpoint: mean survival time, dose: 400.0 mg/kg/injection, schedule: Q04DX003 (ip), vehicle: saline
[4] = endpoint: mean survival time, dose: 50.0 mg/kg/injection, schedule: Q01DX009 (ip), vehicle: saline with Tween-80
[5] = endpoint: mean survival time, dose: 100.0 mg/kg/injection, schedule: Q01DX009 (ip), vehicle: saline with Tween-80
[6] = endpoint: mean survival time, dose: 200.0 mg/kg/injection, schedule: Q01DX009 (ip), vehicle: saline with Tween-80
[7] = endpoint: mean survival time, dose: 100.0 mg/kg/injection, schedule: Q04DX003 (ip), vehicle: saline with Tween-80
[8] = endpoint: mean survival time, dose: 200.0 mg/kg/injection, schedule: Q04DX003 (ip), vehicle: saline with Tween-80
[9] = endpoint: mean survival time, dose: 400.0 mg/kg/injection, schedule: Q04DX003 (ip), vehicle: saline with Tween-80
[10] = endpoint: mean survival time, dose: 50.0 mg/kg/injection, schedule: Q04DX003 (ip), vehicle: saline with Tween-80
[11] = endpoint: mean survival time, dose: 100.0 mg/kg/injection, schedule: Q01DX001 (ip), vehicle: saline
[12] = endpoint: mean survival time, dose: 200.0 mg/kg/injection, schedule: Q01DX001 (ip), vehicle: saline
[13] = endpoint: mean survival time, dose: 400.0 mg/kg/injection, schedule: Q01DX009 (ip), vehicle: saline with Tween-80

## NC(=O)CC(N)C(=O)O.[Cl-].[Cl-].[Cl-].[Cl-].[Pt+2] (centres undefined)
endpoint: mean survival time, dose: 0.78 mg/kg/injection, schedule: Q01DX009 (ip), vehicle: water
  T/C: 101 % of control
endpoint: mean survival time, dose: 1.56 mg/kg/injection, schedule: Q01DX009 (ip), vehicle: water
  T/C: 95 % of control
endpoint: mean survival time, dose: 3.13 mg/kg/injection, schedule: Q01DX009 (ip), vehicle: water
  T/C: 98 % of control
endpoint: mean survival time, dose: 6.25 mg/kg/injection, schedule: Q01DX009 (ip), vehicle: water
  T/C: 90 % of control
endpoint: mean survival time, dose: 12.5 mg/kg/injection, schedule: Q01DX009 (ip), vehicle: water
  T/C: 101 % of control

## NS(=O)(=O)OCCCCCCCOS(N)(=O)=O
endpoint: median survival time, dose: 12.5 mg/kg/injection, schedule: Q01DX009 (ip), vehicle: saline with Tween-80
  T/C: 114 % of control and 116 % of control and 110 % of control

## O=C([O-])CC[n+]1ccn(CCC(=O)O)c1
[1]
  T/C: 109 % of control
[2]
  T/C: 103 % of control
[3]
  T/C: 111 % of control

## CCCCOC(=O)c1cccc([N+](=O)[O-])c1
[4]
  T/C: 93 % of control
[5]
  T/C: 104 % of control
[6]
  T/C: 105 % of control

## NC(=O)C12CCCCC1CCC2 (centres undefined)
[7]
  T/C: 103 % of control
[8]
  T/C: 96 % of control
[9]
  T/C: 97 % of control

## CCC[CH2][Sn]1([CH2]CCC)[O]OC(c2ccc(C(=O)OCC)cc2)[O]1 (centres undefined)
endpoint: mean survival time, dose: 1.56 mg/kg/injection, schedule: Q04DX002 (ip), vehicle: other
  T/C: 101 % of control
endpoint: mean survival time, dose: 3.13 mg/kg/injection, schedule: Q04DX002 (ip), vehicle: other
  T/C: 116 % of control

## CC(=O)Oc1ccc(N2C(=O)C3C(C2=O)C2c4ccccc4C3C3CCCCN32)cc1 (centres undefined) (tested in a mixture with another compound)
endpoint: mean survival time, dose: 25.0 mg/kg/injection, schedule: Q01DX009 (ip), vehicle: water
  T/C: 101 % of control
endpoint: mean survival time, dose: 50.0 mg/kg/injection, schedule: Q01DX009 (ip), vehicle: water
  T/C: 95 % of control
endpoint: mean survival time, dose: 100.0 mg/kg/injection, schedule: Q01DX009 (ip), vehicle: water
  T/C: 95 % of control
endpoint: mean survival time, dose: 200.0 mg/kg/injection, schedule: Q01DX009 (ip), vehicle: water
  T/C: 90 % of control

## CCOC(=O)C#Cc1cccc(C(=O)OC)c1-c1c(I)cccc1C(=O)OC
endpoint: median survival time, dose: 12.5 mg/kg/injection, schedule: Q04DX003 (ip), vehicle: saline with Tween-80
  T/C: 100 % of control
endpoint: median survival time, dose: 25.0 mg/kg/injection, schedule: Q04DX003 (ip), vehicle: saline with Tween-80
  T/C: 100 % of control
endpoint: median survival time, dose: 50.0 mg/kg/injection, schedule: Q04DX003 (ip), vehicle: saline with Tween-80
  T/C: 88 % of control
endpoint: median survival time, dose: 100.0 mg/kg/injection, schedule: Q04DX003 (ip), vehicle: saline with Tween-80
  T/C: 88 % of control

## [Cl][Pt][Cl].[NH-]C(CC(N)=O)C(=O)O (centres undefined)
endpoint: median survival time, dose: 3.12 mg/kg/injection, schedule: Q04DX003 (ip), vehicle: water
  T/C: 109 % of control
endpoint: median survival time, dose: 6.25 mg/kg/injection, schedule: Q04DX003 (ip), vehicle: water
  T/C: 108 % of control
endpoint: median survival time, dose: 12.5 mg/kg/injection, schedule: Q04DX003 (ip), vehicle: water
  T/C: 101 % of control
endpoint: median survival time, dose: 25.0 mg/kg/injection, schedule: Q04DX003 (ip), vehicle: water
  T/C: 106 % of control
endpoint: median survival time, dose: 50.0 mg/kg/injection, schedule: Q04DX003 (ip), vehicle: water
  T/C: 118 % of control
endpoint: median survival time, dose: 100.0 mg/kg/injection, schedule: Q04DX003 (ip), vehicle: water
  T/C: 110 % of control

## CC(C)/C=C\C=C\C(C)C
[4]
  T/C: 96 % of control
[5]
  T/C: 103 % of control
[6]
  T/C: 96 % of control

## O=C1C=C(N2CCOCC2)C(=O)c2nccnc21
endpoint: mean survival time, dose: 25.0 mg/kg/injection, schedule: Q04DX003 (ip), vehicle: saline with Tween-80
  T/C: 95 % of control
[10]
  T/C: 95 % of control

## ClSc1c(Cl)c(Cl)c(Cl)c(Cl)c1Cl
[7]
  T/C: 95 % of control
[8]
  T/C: 101 % of control
[9]
  T/C: 95 % of control

## C=CCS(=O)(=O)Cc1cccc(C)c1
endpoint: mean survival time, dose: 100.0 mg/kg/injection, schedule: Q01DX001 (ip), vehicle: Klucel (hydroxypropylcellulose) (HPC)
  T/C: 93 % of control
endpoint: mean survival time, dose: 200.0 mg/kg/injection, schedule: Q01DX001 (ip), vehicle: Klucel (hydroxypropylcellulose) (HPC)
  T/C: 107 % of control
endpoint: mean survival time, dose: 400.0 mg/kg/injection, schedule: Q01DX001 (ip), vehicle: Klucel (hydroxypropylcellulose) (HPC)
  T/C: 101 % of control

## CSc1c(Cl)cc(Cl)cc1C(=O)O
[7]
  T/C: 94 % of control
[8]
  T/C: 91 % of control
[9]
  T/C: 96 % of control

## CCS(=O)(=O)OCCCNCCCOS(=O)(=O)CC
endpoint: mean survival time, dose: 12.5 mg/kg/injection, schedule: Q01DX001 (ip), vehicle: saline
  T/C: 103 % of control
endpoint: mean survival time, dose: 25.0 mg/kg/injection, schedule: Q01DX001 (ip), vehicle: saline
  T/C: 105 % of control
[11]
  T/C: 160 % of control
[12]
  T/C: 186 % of control

## C=C[CH2][Sn]([c]1ccccc1)([c]1ccccc1)[c]1ccccc1
[10]
  T/C: 87 % of control
[7]
  T/C: 91 % of control

## CC(=O)OCC1OC(n2ncc3c2ncn2nnnc32)C(OC(C)=O)C1OC(C)=O (centres undefined)
endpoint: mean survival time, dose: 18.75 mg/kg/injection, schedule: Q01DX005 (ip), vehicle: distilled water + alcohol
  T/C: 100 % of control
endpoint: mean survival time, dose: 37.5 mg/kg/injection, schedule: Q01DX005 (ip), vehicle: distilled water + alcohol
  T/C: 91 % of control
endpoint: mean survival time, dose: 75.0 mg/kg/injection, schedule: Q01DX005 (ip), vehicle: distilled water + alcohol
  T/C: 103 % of control
endpoint: mean survival time, dose: 150.0 mg/kg/injection, schedule: Q01DX005 (ip), vehicle: distilled water + alcohol
  T/C: 100 % of control
endpoint: mean survival time, dose: 300.0 mg/kg/injection, schedule: Q01DX005 (ip), vehicle: distilled water + alcohol
  T/C: 103 % of control

## CCSC(SCC)[C@H](NC(C)=O)[C@@H](O)[C@H](O)[C@H](O)CO
[1]
  T/C: 101 % of control
[2]
  T/C: 98 % of control
[3]
  T/C: 95 % of control

## NCCCN1CCN(CCCN)CC1
endpoint: mean survival time, dose: 100.0 mg/kg/injection, schedule: Q04DX002 (ip), vehicle: saline
  T/C: 98 % of control
endpoint: mean survival time, dose: 200.0 mg/kg/injection, schedule: Q04DX002 (ip), vehicle: saline
  T/C: 91 % of control
endpoint: mean survival time, dose: 400.0 mg/kg/injection, schedule: Q04DX002 (ip), vehicle: saline
  T/C: 98 % of control

## COc1cccc(CCN)c1
endpoint: mean survival time, dose: 18.75 mg/kg/injection, schedule: Q01DX009 (ip), vehicle: saline sonified
  T/C: 98 % of control
endpoint: mean survival time, dose: 37.5 mg/kg/injection, schedule: Q01DX009 (ip), vehicle: saline sonified
  T/C: 97 % of control
endpoint: mean survival time, dose: 37.5 mg/kg/injection, schedule: Q01DX009 (ip), vehicle: saline with Tween-80
  T/C: 108 % of control
endpoint: mean survival time, dose: 75.0 mg/kg/injection, schedule: Q01DX009 (ip), vehicle: saline sonified
  T/C: 97 % of control
endpoint: mean survival time, dose: 75.0 mg/kg/injection, schedule: Q01DX009 (ip), vehicle: saline with Tween-80
  T/C: 103 % of control

## O=C(O)c1ccccc1C(=O)c1ccc(Cl)cc1
[5]
  T/C: 100 % of control
[7]
  T/C: 94 % of control
[6]
  T/C: 110 % of control
[8]
  T/C: 97 % of control
[13]
  T/C: 108 % of control
[9]
  T/C: 95 % of control

## NC(=O)NC(CC(=O)O)C(=O)O (centres undefined)
[5]
  T/C: 96 % of control
[6]
  T/C: 98 % of control
[13]
  T/C: 95 % of control

## CCOC(=O)C(Cc1ccc(OC)cc1)P(=O)(OCC)OCC (centres undefined)
[11]
  T/C: 106 % of control
[12]
  T/C: 108 % of control
endpoint: mean survival time, dose: 400.0 mg/kg/injection, schedule: Q01DX001 (ip), vehicle: saline
  T/C: 101 % of control

## COc1cc(OC)c(NC(=O)Nc2ccc(C(=O)O)cc2)cc1Cl
[4]
  T/C: 89 % of control
[5]
  T/C: 100 % of control
[6]
  T/C: 96 % of control

## O=C1NCC2(CCN(Cc3ccccc3)CC2)N1c1ccccc1
[7]
  T/C: 93 % of control
[8]
  T/C: 89 % of control
[9]
  T/C: 89 % of control

## O=C1CC2C3C=CC4C3CC2C14 (centres undefined)
endpoint: mean survival time, dose: 75.0 mg/kg/injection, schedule: Q01DX001 (ip), vehicle: saline with Tween-80
  T/C: 97 % of control
endpoint: mean survival time, dose: 150.0 mg/kg/injection, schedule: Q01DX001 (ip), vehicle: saline with Tween-80
  T/C: 101 % of control

## O=C(CCl)Nc1ccccc1Cl
endpoint: mean survival time, dose: 100.0 mg/kg/injection, schedule: Q04DX003 (ip), vehicle: Klucel (hydroxypropylcellulose) (HPC)
  T/C: 97 % of control
endpoint: mean survival time, dose: 200.0 mg/kg/injection, schedule: Q04DX003 (ip), vehicle: Klucel (hydroxypropylcellulose) (HPC)
  T/C: 103 % of control

## O=C(O)C[Se]CC(=O)O
[11]
  T/C: 109 % of control
[12]
  T/C: 103 % of control

## C/C(=N\O)C(C)(O)C(C)(C)C (centres undefined)
[7]
  T/C: 90 % of control
[8]
  T/C: 98 % of control
[9]
  T/C: 93 % of control
